Results reported in article PMC6900016, “Synthesis of Indomorphan Pseudo‐Natural Product Inhibitors of Glucose Transporters GLUT‐1 and ‐3” (Angewandte Chemie (International Ed. in English), 2019).

Columns and labels:
Assay in all cases: cells
Design in all cases: Cell growth inhibition, sulforhodamine B total protein staining
U2OS = conditions: Homo sapiens, U2OS; 72 h growth; read-out: Cell growth inhibition IC50/µM
Outline: (§1)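 72 h exposure of a 94-cell-line panel to Glupin; growth measured by sulforhodamine B total-protein staining after TCA fixation (10% adherent, 50% suspension/semi-adherent, 1 h at 4 °C). IC50 derived from growth inhibition.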

BXPC3 = conditions: Homo sapiens, BXPC-3; 72 h growth; read-out: Cell growth inhibition IC50/µM
Outline: as §1

TE671 = conditions: Homo sapiens, TE-671; 72 h growth; read-out: Cell growth inhibition IC50/µM
Outline: as §1

CALU6 = conditions: Homo sapiens, Calu-6; 72 h growth; read-out: Cell growth inhibition IC50/µM
Outline: as §1

MIAPACA2 = conditions: Homo sapiens, MIA PaCa-2; 72 h growth; read-out: Cell growth inhibition IC50/µM
Outline: as §1

DLD1 = conditions: Homo sapiens, DLD-1; 72 h growth; read-out: Cell growth inhibition IC50/µM
Outline: as §1

CASKI = conditions: Homo sapiens, Ca-Ski; 72 h growth; read-out: Cell growth inhibition IC50/µM
Outline: as §1

SF268 = conditions: Homo sapiens, SF-268; 72 h growth; read-out: Cell growth inhibition IC50/µM
Outline: as §1

5637 = conditions: 72 h growth; read-out: Cell growth inhibition IC50/µM
Outline: as §1

SKHEP1 = conditions: Homo sapiens, SK-HEP1; 72 h growth; read-out: Cell growth inhibition IC50/µM
Outline: as §1

T24 = conditions: Homo sapiens, T-24; 72 h growth; read-out: Cell growth inhibition IC50/µM
Outline: as §1

NCIH358M = conditions: NCI-H358M; 72 h growth; read-out: Cell growth inhibition IC50/µM
Outline: as §1

EJ28 = conditions: Homo sapiens, EJ-28; 72 h growth; read-out: Cell growth inhibition IC50/µM
Outline: as §1

PBMC = conditions: PBMC; 72 h growth; read-out: Cell growth inhibition IC50/µM
Outline: as §1

HEPG2 = conditions: Homo sapiens, HepG2; 72 h growth; read-out: Cell growth inhibition IC50/µM
Outline: as §1

UO31 = conditions: Homo sapiens, UO-31; 72 h growth; read-out: Cell growth inhibition IC50/µM
Outline: as §1

RAMOS = conditions: Homo sapiens, Ramos; 72 h growth; read-out: Cell growth inhibition IC50/µM
Outline: as §1

JAR = conditions: 72 h growth; read-out: Cell growth inhibition IC50/µM
Outline: as §1

PLCPRF5 = conditions: Homo sapiens, PLC-PRF-5; 72 h growth; read-out: Cell growth inhibition IC50/µM
Outline: as §1

SF295 = conditions: Homo sapiens, SF-295; 72 h growth; read-out: Cell growth inhibition IC50/µM
Outline: as §1

IC50 (U2OS): 0.502 µM | IC50 (BXPC3): 0.591 µM | IC50 (CALU6): 0.538 µM | IC50 (MIAPACA2): 0.061 µM | IC50 (DLD1): 0.825 µM | IC50 (SKHEP1): 0.569 µM | IC50 (T24): 0.243 µM | IC50 (HEPG2): > 30 µM | IC50 (RAMOS): 0.212 µM
Structure (SMILES): CCOC(=O)Cn1c2c(c3ccccc31)C[C@@H]1C[C@H]2C(OC)CN1C(=O)c1cccnc1SC (single isomer, unassigned; (+)) [(+)-5a, Glupin]
IC50 (TE671): 0.299 µM | IC50 (CASKI): 0.433 µM | IC50 (SF268): 0.37 µM | IC50 5637: 0.114 µM | IC50 (NCIH358M): > 30 µM | IC50 (EJ28): 1.39 µM | IC50 (PBMC): > 30 µM | IC50 (UO31): 0.109 µM | IC50 (JAR): 0.886 µM | IC50 (PLCPRF5): > 30 µM | IC50 (SF295): 0.427 µM
